Source: patent EP0105106A2, “Anti-bacterial composition” (DAITO KOEKI KABUSHIKI KAISHA, priority 1982, dated 1984)

Assays:
[1] = test system: Staphylococcus aureus 209P; assay: Anti-bacterial test, Chequer board method; assay type: cell-based
Experimental: Tests for anti-bacterial properties were conducted on compositions of the sample of chitosan and SMX, mixed according to the mixing ratios shown in Tables 1 through 3, respectively.
As strains to be tested, there are used Staphylococcus aureus 209P (a typical example of Gram positive bacteria), Escherichia coli NIHJ (a typical example of Gram negative bacteria) and Pseudomonas aeruginosa 3456.
The combined effects obtained by the present tests were determined in accordance with the Chequer board method with reference to the knowledges of Bushby et al (Bushby, S.R.M. & G.H. Hitchings: Trimethoprim. a sulfonamide potentiator. Brit. J. pharm. Chemother 33: 72 ~ 90, 1968) and Bohni et al (Bohni. E: Vergleichende bakteriologishe Untersuchungen mit der Kombination Trimethoprim/Sulfamethoxazol in vitro und in vivo. Chemotherapy. Suppl ad. 14: 1 21, 1969), both of whom reporting the combined effect between sulfamethoxazole (SMX) and trimethoprim (TMP), both of which are noted on the market at present. The results of the tests are shown in Table 1 through 3, respectively.

[2] = test system: Escherichia coli NIHJ; assay: Survival of mice infected with Escherichia coli; assay type: in vivo, ICR mice (male); details: in 28 hours; dosage of SMX of 5 or 10 mg in two hours after the infection
From the text: A strain of Escherichia coli NIHJ is floated in physiologic saline, and a mixture solution containing the strain of Escherichia coli NINJ and 4% mucin, being equal in absorbance to each other is produced. ICR mice (male) were fed with […] this mixture solution containing the bacteria. As the result, all examples of the mice infected with the strain of Escherichia coli (intra Peritoneal administration of 5 ~ 10 times LDso in mice) died in twelve hours (The first contrast group). Subsequently, 80 m 90% of the group of mice on the dosage of SMX of 5 or 10 mg in two hours after the infection were still alive in 24 hours. The rate of survival of the group of mice decreased to 10 ~ 20% in 28 hours.

## Cc1cc(NS(=O)(=O)c2ccc(N)cc2)no1 [SMX, sulfamethoxazol]
[1]; Staphylococcus aureus, 209P, SMX solely used, in a test tube, read-out: minimum inhibition concentration (MIC) of SMX
  MIC: 50 µg/mL
[1]; chitosan added at a rate of 2.5 µg/mℓ
  MIC of SMX: 3.1 µg/mL
[1]; chitosan added at a rate of 2.5 µg/mℓ, versus SMX solely used
  anti-bacterial action is increased: about 16 times SMX
[2]
  rate of survival: 10 ~ 20%
